≈ marks a conversion by molar mass, not a printed value. Like-named read-outs stand apart in the source and are kept apart here.
Key:
Mtb = experiment: Isoniazid MIC shift on Mtb MIC plates (broth microdilution MIC); assay type: cell-based, M. tuberculosis; details: for MIC: Mycobacterium tuberculosis
M. tuberculosis CDC1551 [1] = experiment: microbe, parasite or virus in culture; assay type: cell-based; details: for MIC: Mycobacterium tuberculosis; for Aerobic MIC of CLOF: CLOF with 10 μM 6-azasteroid
[2] = tested on: M. tuberculosis constitutively expressing the luxABCDE operon; details: isoniazid alone (Cho, S. H. et al. 2007), cited from earlier work
M. tuberculosis = experiment: Minimum Bactericidal Concentration (MBC); assay type: cell-based; details: Mycobacterium tuberculosis
RIF-R2 (ATCC35838) = experiment: microbe, parasite or virus in culture; assay type: cell-based; details: Mycobacterium tuberculosis, single drug
[3] = tested on: luminescent strain of H37Rv in infected J774A.1 cells; experiment: microbe, parasite or virus in culture; assay type: cell-based, M. tuberculosis; details: for IC50 / IC90: Mycobacterium tuberculosis, H37RV, J774.A1, single compound, 72 h treatment
[4] = Metabolic stability in human liver microsomes; details: both, pH 7.4
[5] = tested on: M. tuberculosis constitutively expressing the luxABCDE operon; experiment: microbe, parasite or virus in culture; assay type: cell-based; details: for MIC: Mycobacterium tuberculosis, read-out: LORA MIC of INH; for activity under low oxygen conditions: in combination with isoniazid
in vitro [6] = details: both, human, microsomes, pH 7.4
in vitro [7] = assay type: in vitro ADME; details: human; for Papp A→B at 2 h, 5 μM: Caco-2, pH 7.4, Papp(A-B)
Description: (§1) Caco-2 cells were diluted to 6.86×10^6 cells/mL, dispensed into a 96-well HTS Transwell plate, and cultured for 14 to 18 days. 6-azasteroids at 5 μM was incubated at 37° C. for 2 hours with the Caco-2 cell monolayer in HBSS buffer (10 mM HEPES, pH 7.4) containing 5% BSA. Aliquots from donor sides (apical compartment for Ap→Bl flux, and basolateral compartment for Bl→Ap) and receiver sides (basolateral compartment for Ap→Bl flux, and apical compartment for Bl→Ap) were separated and extracted by acetonitrile or methanol containing appropriate internal standards (IS). The concentration of 6-azasteroid was determined by LC-MS/MS analysis.
(§2) Elution rate: 0.65 mL/min.
(§3) To predict absorption via oral administration, Caco-2 bidirectional permeability assay was performed (Table 8).

Caco-2 cell line = experiment: in vitro; assay type: in vitro ADME; details: for substrate for P-gp transporter: Caco-2; for intestinal absorption suggested by Papp(A-B): Caco-2, 5 μM
Description: as §1, §2, §3

hERG = molecular target: T1, hERG (Homo sapiens, UniProt Q12809); experiment: hERG assay (hERG currents in HEK 293 cells); assay type: cell-based; details: hERG stably expressed HEK 293 cells
T1 construct: expressed in transfected cells
Description: hERG stably expressed HEK 293 cells were seeded at 5×10^5 cells/per 6 cm cell culture dish and induced with doxycycline at 1 μg/mL for 48 hours. Compound at the final concentrations of 30, 10, 3.33, 1.11 and 0.37 μM was applied to the cells accumulatively, post-compound hERG currents were recorded, and IC50 was calculated. Dofetilide was used as a positive control.
To predict the potential cardiotoxic effects of 6-azastroids, human ether-a-go-go related gene (hERG) assay was applied to 100, 107 and 114 (Table 9). Cytotoxicity of 107 was also assessed (Table 10).

M. tuberculosis CDC1551 [8] = experiment: In vitro kill kinetics / time-kill (FIG. 2, FIG. 3); assay type: cell-based; details: for rapid killing with mono-treatment: mono-treatment at 10-20 μM, 15 days, FIG. 2
[9] = both, human, microsomes, 2 μM, pH 7.4; for Remaining Percentage with NADPH, 0 min: 0 h; for Remaining Percentage with NADPH, 15 min: 0.25 h; for Remaining Percentage with NADPH, 30 min: 0.5 h; for Remaining Percentage with NADPH, 45 min: 0.75 h; for Remaining Percentage with NADPH, 60 min: 1 h
[10] = 10 mg/kg IP injection once per day, seven days per week, for 40 days
[11] = human liver microsomes, value by Frye (Frye, S. V. 2006); cited from earlier work
[12] = CDC1551, TB drug alone, read-out: Aerobic MIC
[13] = 504 h, single compound, 2-log kill in 21 days, read-out: MBC
[14] = CDC1551, BDQ with 10 μM 6-azasteroid, read-out: Aerobic MIC of BDQ
[15] = CDC1551, Pa (pretomanid) with 10 μM 6-azasteroid, read-out: Aerobic MIC of Pa

T1 sequence (Q12809 whole entry): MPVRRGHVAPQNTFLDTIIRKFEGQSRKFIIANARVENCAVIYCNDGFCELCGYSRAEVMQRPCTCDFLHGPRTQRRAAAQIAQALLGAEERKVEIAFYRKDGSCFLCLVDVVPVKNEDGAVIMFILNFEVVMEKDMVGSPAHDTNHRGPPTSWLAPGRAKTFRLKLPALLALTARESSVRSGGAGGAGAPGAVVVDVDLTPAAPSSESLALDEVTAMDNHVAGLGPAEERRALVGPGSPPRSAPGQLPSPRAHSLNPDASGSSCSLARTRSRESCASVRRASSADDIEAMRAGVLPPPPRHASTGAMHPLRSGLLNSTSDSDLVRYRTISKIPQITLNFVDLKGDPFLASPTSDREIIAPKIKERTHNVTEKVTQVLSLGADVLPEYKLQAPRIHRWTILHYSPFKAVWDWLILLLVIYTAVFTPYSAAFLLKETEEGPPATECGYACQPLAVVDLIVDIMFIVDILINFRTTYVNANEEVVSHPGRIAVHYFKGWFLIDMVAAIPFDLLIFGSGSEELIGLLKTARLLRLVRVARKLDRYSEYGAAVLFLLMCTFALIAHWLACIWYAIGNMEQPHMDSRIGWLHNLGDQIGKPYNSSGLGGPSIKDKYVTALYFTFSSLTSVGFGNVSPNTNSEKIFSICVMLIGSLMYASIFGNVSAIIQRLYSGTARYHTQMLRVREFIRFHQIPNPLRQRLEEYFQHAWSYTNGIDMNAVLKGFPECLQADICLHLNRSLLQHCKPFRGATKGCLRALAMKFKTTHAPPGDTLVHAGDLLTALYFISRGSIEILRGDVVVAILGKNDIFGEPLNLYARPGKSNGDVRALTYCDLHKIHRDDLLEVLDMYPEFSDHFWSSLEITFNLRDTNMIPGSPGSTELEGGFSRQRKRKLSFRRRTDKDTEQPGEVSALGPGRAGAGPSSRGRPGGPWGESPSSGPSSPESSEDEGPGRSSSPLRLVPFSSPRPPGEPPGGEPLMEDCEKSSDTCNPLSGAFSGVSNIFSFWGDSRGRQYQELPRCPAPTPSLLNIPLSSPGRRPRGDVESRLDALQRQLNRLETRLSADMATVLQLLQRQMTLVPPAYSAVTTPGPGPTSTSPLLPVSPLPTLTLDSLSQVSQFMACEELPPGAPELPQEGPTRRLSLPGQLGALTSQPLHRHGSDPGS

CC1C[C@@]2(C)C(=CC1=O)N(C)CC1C2CC[C@@]2(C)C1CC[C@@H]2C(=O)Nc1cc(C(C)(C)C)ccc1C(C)(C)C (some centres unmarked) [Compound 104]
Isoniazid MIC shift (Mtb): ++ (4-8-fold ++)

CN1CC2C(CC[C@@]3(C)C2CC[C@@H]3C(=O)Nc2cc(C(C)(C)C)ccc2C(C)(C)C)[C@@]2(C)CCC(=O)C=C12 (some centres unmarked) [Compound 113]
Isoniazid MIC shift (Mtb): +++ (>10-fold +++)

CC(C)/N=c1\cc2n(-c3ccc(Cl)cc3)c3ccccc3nc-2cc1Nc1ccc(Cl)cc1 [CLOF, clofazimine]
MIC (M. tuberculosis CDC1551 [1]; [12]): 2 µM (≈ 0.947 µg/mL)

COc1c(N2C[C@@H]3CCCN[C@@H]3C2)c(F)cc2c(=O)c(C(=O)O)cn(C3CC3)c12 [MOXI, moxifloxacin]
MIC (M. tuberculosis CDC1551 [1]; [12]): 0.18 µM (≈ 0.0723 µg/mL)

CC(C)(C)c1cc(NC(=O)[C@H]2CCC3C4CNC5=CC(=O)CC[C@]5(C)C4CC[C@@]32C)cc(C(C)(C)C)c1 (some centres unmarked) [Compound 109]
Isoniazid MIC shift (Mtb): ++ (4-8-fold ++)

CC(=O)NC[C@H]1CN(c2ccc(N3CCOCC3)c(F)c2)C(=O)O1 [LIN, linezolid]
MIC (M. tuberculosis CDC1551 [1]; CDC1551, read-out: Aerobic MIC): 0.8 µM (≈ 0.27 µg/mL)

NNC(=O)c1ccncc1 [INH, isoniazid]
LORA MIC [2]: >128 µM | LORA MIC ([2]; listed as isoniazid): > 128 µM | MIC (Mtb; isoniazid without 6-azasteroid, read-out: MIC for isoniazid): 0.4 µM | MIC (Mtb; read-out: MIC for isoniazid alone): 0.2 to 0.4 µM | MBC (M. tuberculosis; [13]): > 230 µM | MIC (M. tuberculosis CDC1551 [1]; [12]): 0.2 to 0.4 µM (≈ 0.0274 to 0.0549 µg/mL) | MIC (RIF-R2 (ATCC35838)): 0.6 µM (≈ 0.0823 µg/mL) | IC50 [3]: ~1500 nM | IC90 [3]: > 6 µM

C[C@H]1COc2c(N3CCN(C)CC3)c(F)cc3c(=O)c(C(=O)O)cn1c23 [Levofloxacin]
MIC (RIF-R2 (ATCC35838)): 2.4 µM (≈ 0.867 µg/mL)

O=[N+]([O-])c1cn2c(n1)OC[C@@H](OCc1ccc(OC(F)(F)F)cc1)C2 [Pa, pretomanid]
MIC (M. tuberculosis CDC1551 [1]; [12]): 0.00625 µM (≈ 0.00225 µg/mL)

COc1nc2ccc(Br)cc2cc1[C@@H](c1ccccc1)[C@@](O)(CCN(C)C)c1cccc2ccccc12 [BDQ, bedaquiline, reference compound]
MBC (M. tuberculosis; [13]): 0.5 µM (≈ 0.278 µg/mL) | MIC (M. tuberculosis CDC1551 [1]; [12]): 0.1 µM (≈ 0.0556 µg/mL)

CCCN1CC2C(CC[C@@]3(C)C2CC[C@@H]3C(=O)Nc2cc(C(C)(C)C)ccc2C(C)(C)C)[C@@]2(C)CCC(=O)C=C12 (some centres unmarked) [Compound 114]
half-life at 2 μM [4]: 18.9 min | Isoniazid MIC shift (Mtb): +++ (>10-fold +++) | MIC ([5]; INH with 55 μM 6-azasteroid): 2.75 µM | activity under low oxygen conditions [5]: active | MBC (M. tuberculosis; [13]): > 40 µM | MBC (M. tuberculosis; BDQ with 10 μM 114, read-out: MBC of BDQ): 0.025 µM | MBC (M. tuberculosis; INH with 13 μM 114, read-out: MBC of INH): 0.7 µM | microsomal CLint at 2 μM (in vitro [6]): 73.2 µL/min/mg | efflux ratio at 2 h, 5 μM (in vitro [7]; Caco-2, pH 7.4, Efflux Ratio): 0.87 | Papp A→B at 2 h, 5 μM (in vitro [7]): 0.85 ×10⁻⁶ cm/s | efflux ratio at 2 h, 5 μM (in vitro [7]; Caco-2, pH 7.4, efflux ratio): ~0.5 | substrate for P-gp transporter (Caco-2 cell line): not a substrate for P-gp transporter | intestinal absorption suggested by Papp(A-B) (Caco-2 cell line; human, pH 7.4): over 50% | Efflux Ratio (Caco-2 cell line; human, Caco-2, 2 h, 5 μM, pH 7.4): 0.48 | Aerobic MIC of CLOF (M. tuberculosis CDC1551 [1]): NC^b | MIC (M. tuberculosis CDC1551 [1]; [14]): < 0.0015 µM | IC50 (hERG): 739 nM | effect on bactericidal activity of bedaquiline (M. tuberculosis CDC1551 [8]): improves bactericidal activity of bedaquiline | rapid killing with mono-treatment (M. tuberculosis CDC1551 [8]): no rapid killing in 15 days | Remaining Percentage with NADPH, 0 min [9]: 100.00% | Remaining Percentage with NADPH, 15 min [9]: 24.89% | Remaining Percentage with NADPH, 30 min [9]: 4.76% | Remaining Percentage with NADPH, 45 min [9]: 1.68% | Remaining Percentage with NADPH, 60 min [9]: 0.96%

CCc1cc(C(N)=S)ccn1 [ETH, ethionamide]
MIC (M. tuberculosis CDC1551 [1]; CDC1551, read-out: Aerobic MIC): 12.5 µM (≈ 2.08 µg/mL)

COc1nc(OC(F)(F)F)c(NC(=O)C2CCC3C4CNC5=CC(=O)CC[C@]5(C)C4CC[C@]23C)cc1Br (some centres unmarked) [Compound 105]
Isoniazid MIC shift (Mtb): + (2-4-fold +) | MIC (M. tuberculosis CDC1551 [1]; [15]): 0.0002 µM

CO[C@H]1/C=C/O[C@@]2(C)Oc3c(C)c(O)c4c(O)c(c(/C=N/N5CCN(C)CC5)c(O)c4c3C2=O)NC(=O)/C(C)=C\C=C\[C@H](C)[C@H](O)[C@@H](C)[C@@H](O)[C@@H](C)[C@H](OC(C)=O)[C@@H]1C [Rifampicin]
MIC (RIF-R2 (ATCC35838)): > 50 µM

CC(C)(C)c1ccc(C(C)(C)C)c(NC(=O)[C@H]2CCC3C4CNC5=CC(=O)CC[C@]5(C)C4CC[C@@]32C)c1 (some centres unmarked) [Compound 100]
half-life at 2 μM [4]: 46.3 min | Isoniazid MIC shift (Mtb): +++ (>10-fold +++) | toxicity [10]: no toxicity was observed | MIC ([5]; INH with 15 μM 6-azasteroid): 0.75 µM | activity under low oxygen conditions [5]: active | MBC (M. tuberculosis; INH with 12 μM 100, read-out: MBC of INH): 0.6 µM | CLint scaled at 2 μM (in vitro [6]): 37.5 mL/min/kg | microsomal CLint at 2 μM (in vitro [6]): 29.9 µL/min/mg | Papp A→B at 2 h, 5 μM (in vitro [7]): 1.4 ×10⁻⁶ cm/s | efflux ratio at 2 h, 5 μM (in vitro [7]; Caco-2, pH 7.4, efflux ratio): ~0.5 | substrate for P-gp transporter (Caco-2 cell line): not a substrate for P-gp transporter | intestinal absorption suggested by Papp(A-B) (Caco-2 cell line; human, pH 7.4): over 50% | Aerobic MIC of CLOF (M. tuberculosis CDC1551 [1]): NC^b | MIC (M. tuberculosis CDC1551 [1]; [14]): 0.01 µM | MIC (M. tuberculosis CDC1551 [1]; [15]): 0.0002 µM | IC50 (hERG): 953 nM | T1/2 previously reported [11]: 2.73 h | rapid killing with mono-treatment (M. tuberculosis CDC1551 [8]): no rapid killing in 15 days | Remaining Percentage with NADPH, 0 min [9]: 100.00% | Remaining Percentage with NADPH, 15 min [9]: 65.83% | Remaining Percentage with NADPH, 30 min [9]: 55.21% | Remaining Percentage with NADPH, 45 min [9]: 48.69% | Remaining Percentage with NADPH, 60 min [9]: 37.91% | improvement of the potency of INH ([3]; 100 at 20 μM): 10 fold | IC50 [3]: 3000 nM | IC90 [3]: > 40 µM

CC(C)(C)OC(=O)N1CC2C(CC[C@@]3(C)C2CC[C@@H]3C(=O)Nc2cc(C(F)(F)F)ccc2C(F)(F)F)[C@@]2(C)CCC(=O)C=C12 (some centres unmarked) [Compound 103]
Isoniazid MIC shift (Mtb): +++ (>10-fold +++)

Source: patent publication US11072633B2 (priority 2016, dated 2021)
